Test results as given in patent US20130267544A1, “Use of LP-PLA2 Inhibitors in the Treatment and Prevention of Eye Diseases” (priority 2010, published 2013).
Read-outs that look alike come from different tables or passages of the source.

Assays:
[1] = system: STZ-induced diabetic Brown Norway rats (blood-retinal barrier); settings: BN rats, 2 week study, 10 mg/kg i.p. QD; not statistically robust
Procedure: (§1) Brown Norway (BN) rats, 6 weeks of age and weighing 180-200 g, were used in this study; the rats had free access to food and water and were maintained in cages in an environmentally controlled room with a 12 hour light-dark cycle. Diabetes was induced by following dosing of animals with streptozotocin (65 mg/kg/day dosed i.p. for each of the first 3 days of the protocol) in 10 mM sodium citrate-buffer pH 4.6. […] Animals which maintained an elevated blood glucose level of over 9 mM were deemed diabetic.

Lp-PLA2 = Lp-PLA2 (Rattus norvegicus, UniProt A6JJ35); settings: hyperglycemic BN rats, 10 mg/kg i.p. QD
Procedure: as §1

[2] = system: STZ-induced diabetic Brown Norway rats (blood-retinal barrier); settings: hyperglycaemic BN rats
Procedure: as §1
Eyes were enucleated, hemisected along the ora serrata, and the vitreous humor removed. Eyecups were immersion fixed in 4% (w/v) paraformaldehyde for 30 min, washed in PBS, and the retinas detached. Fixed retinas were cryoprotected, embedded in Tissue-Tek OCT compound snap frozen in liquid nitrogen-cooled isopentane, and 12-μm cryosections prepared. Sections was immunostained with antibodies specific for rat immunoglobulin G (IgG) in order to locate any nonvascular IgG and isolectin B4 to determine the location of retinal blood vessels in the retinal sections and viewed on a confocal microscope. Fluorescence was visualized by using a Nikon TE-2000 C1 confocal system (Nikon Ltd, Kingston upon Thames, UK). In some cases retinal blood vessels were highlighted using propridium iodide staining

[3] = system: STZ-induced diabetic SD rats
Procedure: as §1, with “Male SD” for “Brown Norway (BN)”, “(50” for “(65”
The retinal images were scanned by a commercially available Fourier-domain OCT (RTVue-100; version 2.1; Optovue, Inc., California, USA). Super-luminescent diode light source with a central wavelength of 840 nm and a full bandwidth of 50 nm was adapted to the OCT. The retinal thickness was accessed by the automatic software of RTVue scanner with manual adjusting. The retinal thickness was defined from layer of retinal pigment eitheluim (RPE) to retinal ganglion cell layer (GCL).
Two separate studies were conducted. Retinal images were taken on experimental day 4, 10, 13, 17, 22, 28 and 31 for the second study and day 0, 4, 7, 10, 14 and 18 for the first study. Animals were anesthetized by inhalation of 5% isoflourane and pupils were diluted with 1% tropicamide and 1% phenylephrine. Prior to OCT analysis animals were fixed on a support frame and the eye to be imaged positioned to align with the center of the scan beam perpendicular to the fundus. […] After imaging, the animals were recovered and returned to cages. Retinal thickness from six time points of OCT measurement were analyzed by repeated measures analysis of variance (ANOVA) using Prism software. […] All data were expressed as mean value±SEM.

Lp-PLA2, sequence (A6JJ35 22-440): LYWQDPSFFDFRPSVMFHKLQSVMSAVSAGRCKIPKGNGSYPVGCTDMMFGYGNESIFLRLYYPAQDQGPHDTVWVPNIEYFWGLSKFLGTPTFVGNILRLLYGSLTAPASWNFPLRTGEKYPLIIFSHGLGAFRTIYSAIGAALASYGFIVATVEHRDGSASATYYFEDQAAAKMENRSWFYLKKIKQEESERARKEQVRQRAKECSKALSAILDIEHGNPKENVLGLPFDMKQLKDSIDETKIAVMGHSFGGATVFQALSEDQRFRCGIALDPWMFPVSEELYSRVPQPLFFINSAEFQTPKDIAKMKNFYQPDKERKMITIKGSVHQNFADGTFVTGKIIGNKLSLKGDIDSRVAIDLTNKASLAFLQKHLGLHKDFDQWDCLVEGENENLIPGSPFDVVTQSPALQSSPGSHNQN

## CN(C)CCN(Cc1ccc(-c2ccc(C(F)(F)F)cc2)cc1)C(=O)Cn1cc(Cc2cnn(C)c2)c(=O)nc1SCc1ccc(F)cc1 [Lp-PLA2 inhibitor '495]
[1]
  Evans blue (albumin) leakage in retinae: reduced this leak to levels exhibited by the normo-glycaemic group
Lp-PLA2; 2 weeks study
  trough Lp-PLA2 inhibition: 89.7%
Lp-PLA2; 4 week study
  trough Lp-PLA2 inhibition: 93.2%
[2]; 10 mg/kg QD i.p., 4 weeks, listed as SB435495, 10 mg/kg
  albumin leakage from retinal vessels (immunohistochemistry): less leakage and extensive co-localization of albumin with retinal blood vessels
[2]; 20 mg/kg QD i.p., 2 weeks, 20 mg/kg
  albumin leakage from retinal vessels (immunohistochemistry): albumin is contained intravascularly and co-localised with retinal vessels
[2]; 20 mg/kg QD i.p., 2 weeks, listed as SB435495, 20 mg/kg
  albumin leakage from retinal vessels (immunohistochemistry): less leakage and extensive co-localization of albumin with retinal blood vessels
[3]; first study, 10 mg/kg/day i.p. from day 8, assessed at 10 and 18 days, p<0.05
  STZ-induced retinal thinning (neuroretinal thickness by OCT): partially but significantly inhibited
[3]; hyperglycaemic SD rats, 10 mg/kg/day, day 14
  incidence of sub-retinal fluid accumulation by OCT: no animals to have overt retinal fluid accumulation
[3]; second study, 10 mg/kg/d i.p. from day 4, vs vehicle-treated diabetic rats, p<0.001
  STZ-induced retinal thinning (neuroretinal thickness by OCT): significant attenuation in the development of retinal thinning
